Test results: ChEMBL document CHEMBL1201862, “PubChem BioAssay data set” (2004)
Active and inactive are the calls of the source.

What was measured:
[1] = molecular target: Alkaline phosphatase, placental type (Homo sapiens, UniProt P05187); experiment: PLAP enzyme inhibitors, confirmation, biochemical, luminescence (AID 1512); format: functional
[2] = molecular target: T1, Alkaline phosphatase, tissue-nonspecific isozyme (Homo sapiens, UniProt P05186); experiment: human TNAP enzyme inhibitors, SAR follow-up, biochemical, luminescent, dose response (AID 1056)
T1 sequence (P05186 whole entry): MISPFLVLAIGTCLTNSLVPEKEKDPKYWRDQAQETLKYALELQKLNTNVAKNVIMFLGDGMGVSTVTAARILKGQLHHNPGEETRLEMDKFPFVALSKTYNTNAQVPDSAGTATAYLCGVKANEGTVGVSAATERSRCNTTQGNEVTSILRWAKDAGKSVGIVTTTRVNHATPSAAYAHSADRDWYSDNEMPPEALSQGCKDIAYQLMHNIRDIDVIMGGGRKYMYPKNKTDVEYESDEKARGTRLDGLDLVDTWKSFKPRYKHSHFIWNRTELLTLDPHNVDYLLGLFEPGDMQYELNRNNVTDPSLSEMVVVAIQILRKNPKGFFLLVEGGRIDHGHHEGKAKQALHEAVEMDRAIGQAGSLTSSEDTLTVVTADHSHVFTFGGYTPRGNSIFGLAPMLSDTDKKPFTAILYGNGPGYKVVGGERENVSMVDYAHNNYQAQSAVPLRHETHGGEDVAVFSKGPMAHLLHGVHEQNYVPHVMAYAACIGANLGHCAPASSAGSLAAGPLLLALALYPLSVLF

CHO-K1 = experiment: (§1) Counterscreen for antagonists of the orexin 1 receptor (OX1R; HCRTR1): Homogeneous time resolved fluorescence (HTRF)-based cell-based dose response assay to identify antagonists of the parental CHO-K1 cell line. [Related pubchem assays (depositor defined):AID434989, AID435008, AID463079, AID485270, AID492963, AID492964, AID492965, AID493232, AID504699, AID504701]; format: functional; conditions: Cricetulus griseus
[3] = as §1, with “Fluorescence-based” for “Homogeneous time resolved fluorescence (HTRF)-based”, “cell-based high throughput” for “cell-based”, “CHO” for “CHO-K1”; format: functional
[4] = molecular target: T2, Orexin/Hypocretin receptor type 1 (Homo sapiens, UniProt O43613); experiment: Homogeneous Time Resolved Fluorescence (HTRF)-based cell-based high throughput dose response assay for antagonists of the orexin 1 receptor (OX1R; HCRTR1). [Related pubchem assays (depositor defined):AID434989, AID435008, AID463079, AID485270, AID492963, AID492964, AID492965, AID493232, AID504717, AID504718]; format: functional
T2 sequence (O43613 whole entry): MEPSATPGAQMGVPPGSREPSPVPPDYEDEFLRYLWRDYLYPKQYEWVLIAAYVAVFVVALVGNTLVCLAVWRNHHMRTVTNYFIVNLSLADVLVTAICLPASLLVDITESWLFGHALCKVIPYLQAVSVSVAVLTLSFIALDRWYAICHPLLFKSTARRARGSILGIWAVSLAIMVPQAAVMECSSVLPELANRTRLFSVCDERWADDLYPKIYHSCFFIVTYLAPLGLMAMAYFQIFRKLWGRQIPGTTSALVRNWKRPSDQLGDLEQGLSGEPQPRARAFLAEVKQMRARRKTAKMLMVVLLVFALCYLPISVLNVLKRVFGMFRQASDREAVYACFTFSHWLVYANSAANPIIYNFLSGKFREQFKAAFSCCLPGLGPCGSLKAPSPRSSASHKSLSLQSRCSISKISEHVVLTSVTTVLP

[5] = molecular target: T2, Orexin/Hypocretin receptor type 1; experiment: Fluorescence-based cell-based high throughput dose response assay for antagonists of the orexin 1 receptor (OX1R; HCRTR1). [Related pubchem assays (depositor defined):AID434989, AID435008, AID463079, AID485270, AID492963, AID492964, AID492965, AID493232, AID504717, AID504718]; format: functional
[6] = Luminescence Cell-Based Dose Confirmation HTS to Identify Activators of 5'UTR Stem-Loop Driven Alpha-Synuclein mRNA Translation in H4 Neuroglioblastoma Cells. [Related pubchem assays: 1829 (Project Summary), 1814 (Primary HTS)]; format: functional
[7] = Luminescence Cell-Based Dose Response HTS to Identify Activators of Luciferase Translation or Activity in H4 […] Cells. [Related pubchem assays: 1829 (Project Summary), 1814 (Primary HTS)]; format: functional
[8] = tested on: Streptococcus sp. 'group A'; experiment: growth inhibition of control SK(-) GAS strain, dose response, counter-screen for streptokinase expression inhibitor project, luminescence, kanamycin, BacTiterGlo, confirmation (AID 1900); format: functional, organism-based
H4 = experiment: Luminescence Cell-Based Dose Response HTS to Identify Activators of 5'UTR Stem-Loop Driven Prion Protein mRNA Translation in H4 Neuroglioblastoma Cells. [Related pubchem assays: 1829 (Project Summary), 1814 (Primary HTS)]; format: functional; conditions: Homo sapiens
[9] = inhibitors of intracellular T. cruzi replication, confirmation, NIH3T3 host cells, beta-gal luminescence (AID 2044); format: functional, cell-based;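 further: intracellular parasites grown in NIH/3T3 mouse fibroblasts as host cells; luminescent beta-galactosidase reporter signal from transgenic T. cruzi replicating inside host cells; inhibitors lower the luminescence signal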
[10] = cytotoxicity toward NIH3T3 fibroblasts, dose response, counter-screen, cell-based, ATP luminescence, mouse fibroblasts (AID 2010); format: functional;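 further: cells exposed to compound for about 90 hours before reading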
Streptococcus = experiment: Group A Streptococcus viability loss, dose response, counter-screen for streptokinase expression inhibitor project, luminescence, BacTiterGlo (AID 1915); format: functional, organism-based;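 further: potency for reduction of bacterial viability or growth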
Exodeoxyribonuclease V = Exodeoxyribonuclease V (Escherichia coli (strain K12), UniProt P04993+P07648+P08394); experiment: E. coli RecBCD inhibitors, dose response, counter-screen for AddAB inhibitor project, absorbance, V66 E. coli, mutant T4 phage (AID 492957); format: functional, cell-based, Escherichia coli str. K-12 substr. MG1655
Sequence of Exodeoxyribonuclease V (P04993 whole entry): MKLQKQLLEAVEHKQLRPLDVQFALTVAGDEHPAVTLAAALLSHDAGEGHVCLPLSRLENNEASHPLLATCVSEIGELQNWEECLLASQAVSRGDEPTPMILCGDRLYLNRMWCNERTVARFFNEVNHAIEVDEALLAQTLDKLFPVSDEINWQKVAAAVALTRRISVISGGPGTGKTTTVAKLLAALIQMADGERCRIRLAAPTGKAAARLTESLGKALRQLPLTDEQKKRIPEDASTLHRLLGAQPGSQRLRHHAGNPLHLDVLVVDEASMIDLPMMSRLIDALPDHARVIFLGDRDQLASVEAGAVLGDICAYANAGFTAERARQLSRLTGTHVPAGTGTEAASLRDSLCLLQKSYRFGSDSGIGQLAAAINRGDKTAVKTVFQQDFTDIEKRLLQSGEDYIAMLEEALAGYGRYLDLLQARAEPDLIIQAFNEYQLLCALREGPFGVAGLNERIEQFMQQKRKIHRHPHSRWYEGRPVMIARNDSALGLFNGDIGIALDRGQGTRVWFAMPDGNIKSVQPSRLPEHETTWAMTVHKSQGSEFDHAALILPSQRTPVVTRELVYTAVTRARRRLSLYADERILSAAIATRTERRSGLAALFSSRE
Sequence of Exodeoxyribonuclease V (P07648 whole entry): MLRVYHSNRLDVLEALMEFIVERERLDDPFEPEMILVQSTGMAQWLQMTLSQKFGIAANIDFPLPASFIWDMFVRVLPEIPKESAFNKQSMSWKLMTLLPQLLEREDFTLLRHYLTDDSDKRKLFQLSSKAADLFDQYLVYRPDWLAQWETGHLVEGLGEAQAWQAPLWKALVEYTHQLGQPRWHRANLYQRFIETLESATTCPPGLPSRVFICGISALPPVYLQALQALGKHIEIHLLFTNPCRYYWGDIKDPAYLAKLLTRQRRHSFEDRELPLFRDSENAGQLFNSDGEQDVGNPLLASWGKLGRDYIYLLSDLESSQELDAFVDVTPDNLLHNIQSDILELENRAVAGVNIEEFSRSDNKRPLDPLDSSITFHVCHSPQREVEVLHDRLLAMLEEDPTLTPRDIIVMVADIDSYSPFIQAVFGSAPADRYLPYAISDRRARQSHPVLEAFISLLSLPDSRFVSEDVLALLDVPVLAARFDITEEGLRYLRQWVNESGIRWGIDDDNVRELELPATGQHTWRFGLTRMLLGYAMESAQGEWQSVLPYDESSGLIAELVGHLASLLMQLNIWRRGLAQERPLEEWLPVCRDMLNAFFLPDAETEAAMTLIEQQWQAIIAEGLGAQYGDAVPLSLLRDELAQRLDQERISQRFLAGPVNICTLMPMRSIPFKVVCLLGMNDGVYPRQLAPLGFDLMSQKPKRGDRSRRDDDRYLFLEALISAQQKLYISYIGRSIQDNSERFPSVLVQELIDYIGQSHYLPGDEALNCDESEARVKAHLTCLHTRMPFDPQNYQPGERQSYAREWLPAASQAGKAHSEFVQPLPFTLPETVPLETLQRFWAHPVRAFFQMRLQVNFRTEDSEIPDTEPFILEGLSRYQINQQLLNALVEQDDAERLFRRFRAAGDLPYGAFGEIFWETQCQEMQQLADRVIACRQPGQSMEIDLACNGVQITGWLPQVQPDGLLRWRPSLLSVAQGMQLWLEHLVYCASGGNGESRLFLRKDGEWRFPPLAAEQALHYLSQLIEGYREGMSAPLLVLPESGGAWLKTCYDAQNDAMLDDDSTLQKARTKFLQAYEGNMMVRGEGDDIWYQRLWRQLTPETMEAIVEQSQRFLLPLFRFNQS
Sequence of Exodeoxyribonuclease V (P08394 whole entry): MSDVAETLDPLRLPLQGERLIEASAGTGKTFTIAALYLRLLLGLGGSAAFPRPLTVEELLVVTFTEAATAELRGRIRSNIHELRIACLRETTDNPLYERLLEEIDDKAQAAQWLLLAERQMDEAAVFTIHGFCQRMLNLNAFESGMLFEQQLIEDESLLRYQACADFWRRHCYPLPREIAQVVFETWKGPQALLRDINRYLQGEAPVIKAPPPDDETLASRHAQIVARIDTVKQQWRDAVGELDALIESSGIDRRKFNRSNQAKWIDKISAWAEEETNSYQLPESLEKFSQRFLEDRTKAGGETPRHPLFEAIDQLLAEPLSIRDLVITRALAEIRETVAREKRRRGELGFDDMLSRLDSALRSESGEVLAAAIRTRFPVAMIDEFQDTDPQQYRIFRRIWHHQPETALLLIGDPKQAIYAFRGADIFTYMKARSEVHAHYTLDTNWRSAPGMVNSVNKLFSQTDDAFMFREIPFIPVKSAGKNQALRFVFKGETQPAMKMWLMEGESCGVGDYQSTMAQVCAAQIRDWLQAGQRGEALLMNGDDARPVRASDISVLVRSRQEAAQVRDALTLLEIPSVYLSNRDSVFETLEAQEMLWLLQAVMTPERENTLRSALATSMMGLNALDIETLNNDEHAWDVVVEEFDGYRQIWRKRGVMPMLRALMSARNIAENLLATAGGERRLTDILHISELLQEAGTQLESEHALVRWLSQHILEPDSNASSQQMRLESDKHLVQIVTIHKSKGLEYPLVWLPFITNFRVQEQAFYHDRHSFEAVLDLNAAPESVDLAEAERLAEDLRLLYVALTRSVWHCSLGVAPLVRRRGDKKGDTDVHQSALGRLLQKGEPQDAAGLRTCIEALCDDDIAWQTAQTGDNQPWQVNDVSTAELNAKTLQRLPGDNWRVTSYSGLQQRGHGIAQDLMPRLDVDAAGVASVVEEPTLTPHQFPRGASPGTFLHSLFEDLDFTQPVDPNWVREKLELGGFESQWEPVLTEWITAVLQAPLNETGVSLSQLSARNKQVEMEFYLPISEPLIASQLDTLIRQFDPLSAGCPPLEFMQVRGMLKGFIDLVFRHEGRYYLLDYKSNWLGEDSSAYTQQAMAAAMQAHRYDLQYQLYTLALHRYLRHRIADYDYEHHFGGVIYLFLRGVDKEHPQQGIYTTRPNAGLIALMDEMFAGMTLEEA

[11] = Counterscreen for AddAB inhibitors: absorbance-based bacterial cell-based high throughput dose response assay for inhibitors of bacterial viability. [Related pubchem assays (depositor defined):AID435030, AID449728, AID449731, AID488942, AID488955, AID488956]; format: functional
BJ [12] = experiment: cytotoxicity toward BJ-TERT fibroblasts, dose response, cell-based, RAS-independent, luminescence (AID 1933); format: functional; conditions: Homo sapiens
cells [13] = format: functional, cell-based
BJ [14] = experiment: cells; format: functional, cell-based; conditions: Homo sapiens
[15] = microbe, parasite or virus in culture; format: functional; conditions: Mycobacterium tuberculosis
cells [16] = format: functional, cell-based; remark: listed apart in the source
BJ [17] = experiment: cytotoxicity toward BJ-TERT-LT-ST fibroblasts, dose response, cell-based, RAS-independent, luminescence (AID 1935); format: functional; conditions: Homo sapiens;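 further: BJ fibroblasts immortalized with TERT plus LT and ST oncogenes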
[18] = cytotoxicity toward DRD oncogenic fibroblasts, dose response, cell-based, non-viral oncogenic, luminescence (AID 1934); format: functional; conditions: Homo sapiens
BJ [19] = experiment: cytotoxicity toward Ras-transformed BJeLR fibroblasts, dose response, cell-based, alamar blue fluorescence, cherrypicked samples (AID 2631); format: functional; conditions: Homo sapiens;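 further: confirmatory dose-response assay in RAS-dependent BJ fibroblasts engineered with TERT, LT and ST, with cytotoxicity read by fluorescence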
INS1 = experiment: beta cell apoptosis inhibitors, cytokine rescue, dose response, luminescence, retest (AID 449756); format: functional, cell-based; conditions: Rattus norvegicus;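 further: cell death triggered by IL-1 beta plus TNF-alpha plus IFN-gamma mixture; protective hits raise ATP signal compared with cytokine alone wells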
[20] = molecular target: T3, E3 ubiquitin-protein ligase XIAP (Homo sapiens, UniProt P98170); experiment: Counter Screen using XIAP-Bir3 for Chemical Antagonists of Bir1/2 domains of IAP-family anti-apoptotic proteins. [Related pubchem assays (depositor defined):AID1018, AID1449, AID1514, AID1638, AID1749, AID1750, AID488957, AID488963]
T3 sequence (P98170 whole entry): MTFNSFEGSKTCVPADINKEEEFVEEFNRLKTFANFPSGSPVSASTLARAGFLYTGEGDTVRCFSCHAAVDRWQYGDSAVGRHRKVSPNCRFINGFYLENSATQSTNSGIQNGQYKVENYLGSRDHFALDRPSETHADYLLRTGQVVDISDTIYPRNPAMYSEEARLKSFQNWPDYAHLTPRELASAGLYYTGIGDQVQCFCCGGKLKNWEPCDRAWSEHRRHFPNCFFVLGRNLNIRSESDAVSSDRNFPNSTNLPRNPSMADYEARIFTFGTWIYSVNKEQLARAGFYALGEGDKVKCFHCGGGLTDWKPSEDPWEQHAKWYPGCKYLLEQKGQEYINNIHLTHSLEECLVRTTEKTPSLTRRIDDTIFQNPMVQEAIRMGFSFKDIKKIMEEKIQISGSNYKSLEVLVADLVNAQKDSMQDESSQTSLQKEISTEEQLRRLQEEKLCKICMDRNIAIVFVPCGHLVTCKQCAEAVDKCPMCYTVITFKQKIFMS

[21] = molecular target: T3, E3 ubiquitin-protein ligase XIAP; experiment: XIAP antagonists, biochemical, IAP family, fluorescence polarization (AID 1018); format: functional

Sequence of Alkaline phosphatase, placental type (P05187 whole entry): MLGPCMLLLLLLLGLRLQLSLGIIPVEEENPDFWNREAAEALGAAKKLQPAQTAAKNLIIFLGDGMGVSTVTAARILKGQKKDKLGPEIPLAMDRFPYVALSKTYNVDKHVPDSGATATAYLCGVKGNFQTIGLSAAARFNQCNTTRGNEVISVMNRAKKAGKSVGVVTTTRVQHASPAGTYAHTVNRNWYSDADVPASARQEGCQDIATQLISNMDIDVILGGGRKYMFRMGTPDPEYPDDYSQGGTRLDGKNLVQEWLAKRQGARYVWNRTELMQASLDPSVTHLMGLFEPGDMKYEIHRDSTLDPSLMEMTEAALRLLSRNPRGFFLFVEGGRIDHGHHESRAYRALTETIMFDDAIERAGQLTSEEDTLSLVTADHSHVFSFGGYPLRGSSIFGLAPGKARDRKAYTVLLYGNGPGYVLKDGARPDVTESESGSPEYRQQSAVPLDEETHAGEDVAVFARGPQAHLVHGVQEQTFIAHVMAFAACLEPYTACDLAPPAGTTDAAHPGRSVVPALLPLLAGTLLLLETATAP

For `C=CCn1c(SCC(=O)c2ccc(O)c(O)c2)nnc1-c1ccc(C(C)(C)C)cc1`, the IC50 [1] was 97.5 µM (active) and the IC50 [2] was > 100 µM (inactive).

With `COC(=O)C(C(C)=O)C1=C/C(=N\S(=O)(=O)c2ccc(C)cc2)c2ccccc2C1=O` (stereo not drawn) the IC50 (CHO-K1) was 53.7 µM (inactive), the IC50 [3] was > 49.8 µM (inactive) and the IC50 [4] was 0.414 µM (active). The IC50 [5] was 2.83 µM (active).

In the case of `CCOC(=O)C1=C(C)N=C2C(=C(O)c3ccccc32)C1c1ccc([N+](=O)[O-])o1` (stereo not drawn), the EC50 [6] is reported as > 120 µM (not active), the EC50 [7] is reported as > 120 µM (not active) and the EC50 [8] is reported as 2.81 µM (active). The EC50 (H4) was > 120 µM (not active), the EC50 [9] was 1.43 µM (active) and the EC50 [10] was > 60 µM (not active). The EC50 (Streptococcus) was 29.9 µM (active), the IC50 (Exodeoxyribonuclease V) was > 119 µM (inactive) and the IC50 [11] was > 119 µM (inactive).

In the case of `COc1ccc(N/N=C(/N=Nc2nc(C)cc(O)n2)c2ccccc2)cc1`, the EC50 (BJ [12]) is reported as 4.09 µM (active), the EC50 (cells [13]) is reported as 3.44 µM (active) and the EC50 (BJ [14]) is reported as 3.68 µM (active). For the same compound, the CC50 [15] was 6.39 µM (active), the EC50 (cells [16]) was 5.67 µM (active) and the EC50 (BJ [17]) was 4.21 µM (active). For the same compound, the EC50 [18] was 5.72 µM (active), the IC50 (Exodeoxyribonuclease V) was > 119 µM (inactive) and the IC50 [11] was > 119 µM (inactive). The EC50 (BJ [19]) was 0.615 µM (active) and the AC50 (INS1) was < 0.195 µM (active).

With `Cc1ccc(C(=O)N/N=C\c2ccccc2[N+](=O)[O-])cn1` the IC50 [20] was > 100 µM (inactive) and the IC50 [21] was > 100 µM (not active).
